From US8269017B2, “Compounds for the treatment of proliferative disorders” (Synta Pharmaceuticals Corporation, priority 2005, dated 2012)
pIC50: −log10 of the molar value. Entries after “also recorded” stand apart in the source; their conditions may differ. Like-named read-outs stand apart in the source and are kept apart here.

Columns and labels:
[1] = test system: MDA-435 cells; experiment: Cell cycle analysis in MDA-435 cells; type: cell-based, human; settings: 20 h, Taxol 30 nM, Comp. 1 100 nM, Comp. 2 500 nM, Comp. 3 10 nM, Comp. 6 800 mM (so in the source), Comp. 46 50 nM
Experimental: MDA-435 cells were cultured in 6-well plates at 1×10^6 cells/well and were untreated (negative control), treated with Taxol (positive control), or treated with a compound of the invention at 37° C. for 20 h. The cells were detached with 1× trypsin and washed one time with PBS. Cycle TEST PLUS kit (BD PharMingen, Cat #340242) was used to stain the cells. Cell cycle was analyzed with FACScomp program (BS PharMingen).

[2] = test system: α-tubulin-YFP labeled microtubules in MCF7-α-tubulin-YFP cells; experiment: Inhibition of tubulin polymerization in α-tubulin-YFP expressing cells (fluorescence imaging); type: cell-based
Experimental: Living cells were examined using a fluorescent microscope for α-tubulin-YFP expression.
CHO-α-tubulin-YFP or MCF7-α-tubulin-YFP cells were cultured in 2-well chambered cover-slips (Labtek (Campbell, Calif.) or Fisher Scientific) for 24 hours before treatment with a compound of the invention. For comparison of the effects of treatment on α-tubulin-YFP labeled microtubules with the compounds of the invention, CHO-α-tubulin-YFP or MCF7-α-tubulin-YFP cells were treated with the a compound of the invention, Taxol or equivalent concentrations of DMSO-containing media for various time periods before imaging. Tubulin-YFP fluorescence in living cells or fixed cells was captured using a standard filter for FITC and objectives of 20× or 60× magnification on a Nikon TE300 microscope with a Leica DC50 color digital camera (Leica, Bannockburn, Ill.) or a CoolSnap HQ monochrome CCD camera (Photonetrics, Tucson, Ariz.). The Leica DC50 and CoolSnapHQ cameras were controlled with Leica DC50 software and MetaVue/MetaMorph software, respectively (Universal Imaging Corp, Downingtown, Pa.).

[3] = test system: MDA-435; experiment: Cytotoxicity in MDA-435 tumor cells (Cell Counting Kit 8); type: cell-based; settings: Homo sapiens, MDA435, MDA-435 cells, 70 h
Experimental: Tumor cell line, MDA-435, was seeded in 96-well plates at 1×10^4 cells/well in DMEM medium and treated with compounds at different concentrations. Taxol was used as a positive control. The cells were incubated at 37° C. for 70 h. Viability of the cells was measured with Cell Counting Kit 8 (Dojindo, Cat #CK04). IC50 of the compounds was determined by Five-Parameter Logistic equation.

[4] = test system: SB cells; experiment: Induction of apoptosis in SB cells (Annexin V/PI, FACS); type: cell-based; settings: 24 h; for % Apoptotic Cells Gated: 1 μM; for cytotoxicity at 1 µM: read-out: % Dead Cells Gated; for viability at 1 µM: read-out: % Live Cells Gated
Experimental: SB cells (2×10^5 cells/mL) were cultured in 12-well plates (2 mL/well) and were left untreated (negative control), treated with Taxol (positive control), or treated with a compound of the invention for 24 h at 37° C. After treatment, the cells were washed one time with 1×PBS and stained with FITC labeled anti-Annexin V and PI (10 μg/ml) for 15 min at room temperature. The cells were analyzed by FACSCalibur (Becton Dickinson).

[5] = test system: MES-SA/DX5 (uterine sarcoma, MDR-1); experiment: cells; type: cell-based; settings: Homo sapiens, MES/DX5 (MDR-1), MTS assay
Experimental: (§1) The in vitro cytotoxicity of the compounds of the invention was determined in the following human cell lines: HL-60 (T-cell leukemia), MDA-435 and MCF-7 (human breast carcinoma), NCI-H460 and H29 (colon carcinoma), DU145 (prostate carcinoma), and MES-SA and MES-SA/DX5 (uterine sarcoma). MES-SA is a model of uterine sarcoma, and the cell are sensitive to a number of chemotherapeutic agents including doxorubicin, dactinomycin, mitomycin C, taxol and bleomycin, but resistant to vinblastine and cisplatin. MES-SA/Dx5 was established in the presence of increasing concentrations of doxorubicin. […] All cells were purchased from ATCC.
(§2) The cell lines were maintained in RPMI1640 (GIBCO) supplemented with 10% FCS, 100 units/mL penicillin, 100 ug/ml streptomycin, and 2 mM L-glutamine. Cells were split every third day and diluted to a concentration of 2×10^5 cells/mL one day before the experiment was performed. All experiments were performed on exponentially growing cell cultures. Cell densities were 2.5×10^4 cells/mL in all experiments.
(§3) Compounds of the invention were prepared by dissolving the compound at a concentration of 10 mM in 100% DMSO. Final concentrations 10, 1, 0.1, 0.01 and 0.001 μM were obtained by diluting the stock solution directly into the tissue culture medium.

[6] = test system: H29 (colon carcinoma); experiment: In vitro cytotoxicity, MTS assay, H29; type: cell-based; settings: Homo sapiens, 72 hours
Experimental: as §1, §2, §3

[7] = test system: MCF-7 (human breast carcinoma); experiment: In vitro cytotoxicity, MTS assay, MCF-7; type: cell-based; settings: MCF7, MCF-7 (Breast Cancer), 72 hours
Experimental: as §1, §2, §3

[8] = test system: DU145 (prostate carcinoma); experiment: In vitro cytotoxicity, MTS assay, DU145; type: cell-based; settings: Homo sapiens, DU-145, 72 hours
Experimental: as §1, §2, §3

[9] = test system: MES-SA (uterine sarcoma); experiment: In vitro cytotoxicity, MTS assay, MES-SA; type: cell-based, human; settings: MES-SA (Uterine Carcinoma), 72 hours
Experimental: as §1, §2, §3

[10] = test system: NCI-H460 (colon carcinoma); experiment: In vitro cytotoxicity, MTS assay, NCI-H460; type: cell-based; settings: Homo sapiens, 72 hours
Experimental: as §1, §2, §3

[11] = test system: HL-60 (T-cell leukemia); experiment: In vitro cytotoxicity, MTS assay, HL-60; type: cell-based, human; settings: 72 hours
Experimental: as §1, §2, §3

[12] = test system: MDA-435 (human breast carcinoma); experiment: In vitro cytotoxicity, MTS assay, MDA-435; type: cell-based; settings: MDA435, MDA-435 (Breast Cancer), 72 hours
Experimental: as §1, §2, §3

[13] = Body weight change in MDA-MB-435S xenograft study (Example 10); type: in vivo, nude mouse; settings: i.v.
Experimental: (§4) Seven to eight week old, female Crl:CD-1-nuBR (nude) mice were obtained from Charles River Laboratories (Wilmington, Mass., USA). Animals were housed 4-5/cage in micro-isolators, with a 12 hr/12 hr light/dark cycle, acclimated for at least 1 week prior to use and fed normal laboratory chow ad libitum. Studies were conducted on animals between 8 and 10 weeks of age at implantation. To implant MDA-MB-4355 tumor cells into nude mice, the cells were trypsinized as above, washed in PBS and resusupended at a concentration of 50×10(6) cells/ml in PBS. Using a 27 gauge needle and 1 cc syringe, 0.1 ml of the cell suspension was injected into the corpus adiposum of nude mice. The corpus adiposum is a fat body located in the ventral abdominal vicera in the right quadrant of the abdomen at the juncture of the os coxae (pelvic bone) and the os femoris (femur).
(§5) Compounds were formulated in either D5W (Compounds 169 and 174) or DRD (Compound 178). For formulations in D5W, solutions of test articles were prepared by dissolving the appropriate amounts of each compound in 5% dextrose in water (Abbott Laboratories, North Chicago, Ill., USA) by sonication in an ultrasonic water bath. For formulations in DRD, stock solutions of test articles were prepared by dissolving the appropriate amounts of each compound in dimethyl sulfoxide (DMSO) by sonication in an ultrasonic water bath. Stock solutions were prepared weekly, stored at −20° C. and diluted fresh each day for dosing. A solution of 20% Cremophore RH40 (polyoxyl 40 hydrogenated castor oil; BASF Corp., Aktiengesellschaft, Ludwigshafen, Germany) in 5% dextrose in water (Abbott Laboratories, North Chicago, Ill., USA) was also prepared by first heating 100% Cremophore RH40 at 50-60° C. until liquefied and clear, diluting 1:5 with 100% D5W, reheating again until clear and then mixing well. This solution was stored at room temperature for up to 3 months prior to use. To prepare DRD formulations for daily dosing, DMSO stock solutions were diluted 1:10 with 20% Cremophore RH40. […]

[14] = test system: human tumor cell line MDA-MB-435S; experiment: Nude mouse xenograft, MDA-MB-435S (Example 10); type: in vivo
Experimental: as §4
Tumors were then permitted to develop in vivo until the majority reached an average of 100-200 mm^3 in tumor volume, which typically required 2-3 weeks following implantation. […] Tumor volumes (V) were calculated by caliper measurement of the width (W), length (L) and thickness (T) of tumors using the following formula: V=0.5236×(L×W×T). Animals were randomized into treatment groups so that the median tumor volumes of each group were similar at the start of dosing. % T/C values, as a measure of efficacy, were determined as follows: • (i) If ΔT>0: % T/C=[…] • (ii) If ΔT<0: % T/C=(ΔT/T0)×100 • (iii) ΔT=Change in median tumor volume between start of dosing and the end of study. • (iv) ΔC=Change in median tumor volume between start of dosing and the end of study. • (v) T0=Median tumor volume at start of dosing.
as §5, with “use.” for “use. To prepare DRD formulations for daily dosing, DMSO stock solutions were diluted 1:10 with 20% Cremophore RH40.”

[15] = MCF7-α-tubulin-YFP cells treated with 1.0 μM compound
[16] = Homo sapiens, HL-60, HL60 (Leukemia), read-out: IC50
[17] = Compound 169 at 2 mg/kg, Compound 174 at 4.55 mg/kg body weight, i.v., 1 time/week, 3 doses

| SMILES | Apoptotic Population (%) [1] [%] | G0/G1 Phase (%) [1] [%] | G2/M Phase (%) [1] [%] | S Phase (%) [1] [%] | pIC50 [3] | % Apoptotic Cells Gated [4] [%] | cytotoxicity at 1 µM [4] [%] | viability at 1 µM [4] [%] | pIC50 ([5]; MDR1, 72 h) | pIC50 [6] | pIC50 [7] | pIC50 [8] | pIC50 ([9]; Homo sapiens, read-out: IC50) | pIC50 [10] | pIC50 [11, 16] | pIC50 [12] | further results |
| --- | --- | --- | --- | --- | --- | --- | --- | --- | --- | --- | --- | --- | --- | --- | --- | --- | --- |
| CCc1cc(-c2oncc2-c2ccc(Br)cc2)c(O)cc1OC [Compound 6, 4-(4-Bromo-phenyl)-5-(2-hydroxy-4-methoxy-5-ethyl-phenyl)-isoxazole] | 10.59 | 18.45 | 35.96 | 35.55 | 6.34 | 14.17 | 17.3 | 59.2 | – | – | – | – | – | – | – | – | Tubulin-YFP signal pattern in live cells [2, 15]: cytoplasmic pattern |
| CCc1cc(-c2oncc2-c2ccc(I)cc2)c(O)cc1OC [Compound 4, 4-(4-Iodo-phenyl)-5-(2-hydroxy-4-methoxy-5-ethyl-phenyl)-isoxazole] | – | – | – | – | 6.63 | 19.05 | 20.1 | 52.8 | 7.30 | 7.30 | 7.30 | 7.30 | 7.30 | 7.30 | 7.30 | 7.30 | – |
| COc1cc(-c2oncc2-c2ccc(Br)cc2)cc(OC)c1OC [Compound 1, 4-(4-Bromo-phenyl)-5-(3,4,5-trimethoxy-phenyl)-isoxazole] | 11.35 | 19.15 | 32.60 | 37.60 | 6.88 | 18.36 | 14.4 | 60.1 | – | – | – | – | – | – | – | – | Tubulin-YFP signal pattern in live cells [2, 15]: cytoplasmic pattern |
| COc1ccc(-c2cnoc2-c2cc(OC)c(OC)c(OC)c2)cc1OP(=O)(O)O [Compound 178, Sodium 2-methoxy-5-[5-(3,4,5-trimethoxy-phenyl)-isoxazol-4-yl)-phenyl phosphate] | – | – | – | – | – | – | – | – | – | – | – | – | – | – | – | – | overt toxicity (effect on body weights) ([13]; Compound 178 at 25, 37.5 or 50 mg/kg body weight, 3 times per week, phosphate): not overtly toxic; also recorded: not associated with overt toxicity; pIC50 ([9]; phosphate): 8.40; pIC50 ([11]; HL60 (Leukemia), phosphate): 7.66; efficacy on in vivo growth of MDA-MB-435S tumors ([14]; i.v. 3 times per week, dose escalation: 3 doses at 25, 3 at 37.5, 3 at 50 mg/kg, efficacy at 37.5 and 50 mg/kg, phosphate): began to show moderate efficacy; also recorded: began to show modest efficacy |
| COc1ccc(-c2cnoc2-c2cc(OC)c(OC)c(OC)c2)cc1NC(=O)CN.Cl [Compound 169, 2-Amino-N-{2-methoxy-5-[5-(3,4,5-trimethoxy-phenyl)-isoxazol-4-yl]-phenyl}-acetamide] | – | – | – | – | – | – | – | – | 8.52 | – | – | – | 8.52 | – | 8.15 | – | overt toxicity (effect on body weights) ([13]; Compound 169 at 2 and 1 mg/kg, Compound 174 at 4.55 and 2.28 mg/kg body weight, 1 time per week, 3 doses): not overtly toxic; also recorded: not associated with overt toxicity; % T/C [14, 17]: 38%; in vivo growth rate of MDA-MB-435S tumors [14, 17]: substantially inhibited tumor growth; also recorded: substantially decreased the growth rate |
| CC(=O)O[C@H]1C(=O)[C@@]2(C)[C@H]([C@H](OC(=O)c3ccccc3)[C@]3(O)C[C@H](OC(=O)[C@H](O)[C@@H](NC(=O)c4ccccc4)c4ccccc4)C(C)=C1C3(C)C)[C@]1(OC(C)=O)CO[C@@H]1C[C@@H]2O [Taxol, reference compound] | 16.17 | 19.12 | 32.32 | 32.93 | 7.80 | 17.84 | 12.5 | 63.7 | – | 8.00 | 8.30 | 8.30 | 8.30 | 8.30 | 8.30 | 8.70 | pIC50 ([5]; MDR1, 72 hours, read-out: IC50): 5.00; Tubulin-YFP signal pattern in live cells ([2]; MCF7-α-tubulin-YFP cells treated with 0.1 μM Taxol): microtubule bundle formation |
| COc1cc(-c2oncc2-c2ccc3c(c2)OCCO3)cc(OC)c1OC [Compound 46, 4-(2,3-Dihydro-benzo[1,4]dioxin-6-yl)-5-(3,4,5-trimethoxy-phenyl)-isoxazole] | 9.88 | 19.67 | 28.18 | 37.98 | 7.68 | 19.04 | 17.3 | 51 | 7.30 | 7.30 | 7.30 | 7.00 | 7.30 | 7.30 | 7.30 | 7.30 | – |
